{"source": "paper PMC4604124", "about": "“In Vitro Characterization of the Pharmacological Properties of the Anti-Cancer Chelator, Bp4eT, and Its Phase I Metabolites” (PLoS ONE, 2015)", "key": {"[1]": {"test_system": "A549 human lung adenocarcinoma cells", "experiment": "MTT cytotoxicity assay, A549 cells", "assay_type": "cell-based", "conditions": "for IC50: MTT", "procedure": "(§1) For cytotoxicity experiments, cancer cells were seeded at a density of 5,000 (MCF-7), 10,000 (HL-60) or 2,000 cells/well (HCT116 and A549) in 96-well plates (TPP) for 24 h/37°C prior to the addition of examined agents. The non-cancerous cells, 3T3 and H9c2 cells, were cultured for 24 h/37°C in 96-well plates at a density of 10,000 cells/well, the medium was then changed to serum- and pyruvate-free DMEM (Sigma-Aldrich) and incubated with the cells for another 24 h/37°C. The cytotoxic effects of Bp4eT and its metabolites were studied at different concentrations after a 72 h/37°C incubation. In order to aid the dissolution of the lipophilic ligands, 0.1% dimethyl sulfoxide (v/v) (DMSO; Sigma-Aldrich) was present in the culture medium of all groups. At this concentration, DMSO had no effect on cellular proliferation or viability.\n(§2) The viability of cells were determined using an MTT assay (Sigma-Aldrich) according to previously established methods. The optical density of soluble MTT was measured at λ = 570 nm, subtracting the λ = 690 nm background using a Tecan Infinite 200M plate reader (Tecan Group, Männedorf, Switzerland). The viability or proliferation of experimental groups was expressed as a percentage of the untreated controls (100%).\n(§3) SigmaStat for Windows 3.5 (Systat Software, San Jose, CA, USA) statistical software package was utilized to analyze results. The data are expressed as the mean ± SD of a given number of experiments. Statistical significance was determined using a one-way ANOVA with a Bonferroni post-hoc test or Student’s t-test. The results were considered to be statistically significant when p < 0.05. The IC50 values were calculated using CalcuSyn 2.0 software (Biosoft, Cambridge, UK). Cell cycle analysis was evaluated using MultiCycle AV Software (Phoenix Flow Systems, San Diego, CA, USA)."}, "[2]": {"experiment": "MTT cytotoxicity assay, 3T3 cells", "assay_type": "cell-based, mouse", "conditions": "mouse, 3T3 mouse embryo fibroblasts, 3T3, 10 000 b/j; for viability at 72 h, 1 μM: koncentrace 1 μM; for viability at 72 h, 3 μM: koncentrace 3 μM; for viability at 72 h, 10 μM: koncentrace 10 μM; for viability at 72 h, 30 μM: koncentrace 30 μM; for viability at 72 h, 100 μM: koncentrace 100 μM; for viability at 72 h, 300 μM: koncentrace 300 μM; for viability at 72 h, 1000 μM: koncentrace 1000 μM", "procedure": "as §1, §2, §3"}, "[3]": {"test_system": "3T3 mouse embryo fibroblasts", "experiment": "MTT cytotoxicity assay, 3T3 cells", "assay_type": "cell-based", "conditions": "3T3, 10 000 b/j, individual experiments", "procedure": "as §1, §2, §3"}, "[4]": {"conditions": "individual experiments, read-out: MTT viability (0 = 100)"}, "[5]": {"conditions": "mean, read-out: MTT viability (0 = 100), průměr"}}, "note": "Several values for one entry are separate records, joined by “and”; a condition that tells them apart may be missing. Equal values may be shown once. Read-outs that look alike come from different tables or passages of the source."}
{"smiles": "CCN=CNN=C(c1ccccc1)c1ccccn1", "note": "[Bp4eA, N ^3-ethyl-N ^1-[phenyl(pyridin-2-yl)methylene]formamidrazone]", "values": [{"measurement": "Therapeutic index, IC50 non-cancerous cells / IC50 neoplastic cells", "setting": "[1]; 3T3/A549", "result": 5.0}, {"measurement": "MTT, relative to control (0 = 100)", "setting": "[1]; A549, 2 000 b/j, 1 μM, průměr (mean), sheet Bp4eA", "result": 94.41}, {"measurement": "MTT, relative to control (0 = 100)", "setting": "[1]; A549, 2 000 b/j, 1 μM, single experiment (date), sheet Bp4eA", "result": "88.8209 and 94.4571 and 96.7337 and 97.6446"}, {"measurement": "MTT, relative to control (0 = 100)", "setting": "[1]; A549, 2 000 b/j, 3 μM, průměr (mean), sheet Bp4eA", "result": 94.09}, {"measurement": "MTT, relative to control (0 = 100)", "setting": "[1]; A549, 2 000 b/j, 3 μM, single experiment (date), sheet Bp4eA", "result": "86.5333 and 93.7511 and 98.3115 and 97.7691"}, {"measurement": "MTT, relative to control (0 = 100)", "setting": "[1]; A549, 2 000 b/j, 10 μM, průměr (mean), sheet Bp4eA", "result": 92.78}, {"measurement": "MTT, relative to control (0 = 100)", "setting": "[1]; A549, 2 000 b/j, 10 μM, single experiment (date), sheet Bp4eA", "result": "86.1682 and 92.0865 and 96.0506 and 96.8227"}, {"measurement": "MTT, relative to control (0 = 100)", "setting": "[1]; A549, 2 000 b/j, 30 μM, průměr (mean), sheet Bp4eA", "result": 91.20}, {"measurement": "MTT, relative to control (0 = 100)", "setting": "[1]; A549, 2 000 b/j, 30 μM, single experiment (date), sheet Bp4eA", "result": "88.1425 and 87.7957 and 97.6861 and 91.1602"}, {"measurement": "MTT, relative to control (0 = 100)", "setting": "[1]; A549, 2 000 b/j, 100 μM, průměr (mean), sheet Bp4eA", "result": 77.56}, {"measurement": "MTT, relative to control (0 = 100)", "setting": "[1]; A549, 2 000 b/j, 100 μM, single experiment (date), sheet Bp4eA", "result": "74.9089 and 76.0742 and 86.7011 and 72.5654"}, {"measurement": "MTT, relative to control (0 = 100)", "setting": "[1]; A549, 2 000 b/j, 300 μM, průměr (mean), sheet Bp4eA", "result": 45.10}, {"measurement": "MTT, relative to control (0 = 100)", "setting": "[1]; A549, 2 000 b/j, 300 μM, single experiment (date), sheet Bp4eA", "result": "48.1515 and 41.8857 and 54.342 and 36.0376"}, {"measurement": "MTT, relative to control (0 = 100)", "setting": "[1]; A549, 2 000 b/j, 1000 μM, průměr (mean), sheet Bp4eA", "result": 7.31}, {"measurement": "MTT, relative to control (0 = 100)", "setting": "[1]; A549, 2 000 b/j, 1000 μM, single experiment (date), sheet Bp4eA", "result": "9.28 and 7.437 and 7.169 and 5.37"}, {"measurement": "IC50", "setting": "[1]; A549, 2 000 b/j, single experiment (date), sheet Bp4eA", "result": "183 µM and 273 µM and 169 µM"}, {"measurement": "Therapeutic index, IC50 non-cancerous cells / IC50 neoplastic cells", "setting": "[1]; H9c2/A549", "result": 2.0}, {"measurement": "IC50", "setting": "[1]; Homo sapiens, A549, 72 h, A549, 72 h/37°C, mean ± SD, n ≥ 4", "result": "207 ± 46.1", "unit": "µM"}, {"measurement": "IC50", "setting": "[1]; Homo sapiens, A549, A549, 2 000 b/j, průměr (mean), sheet Bp4eA", "result": 207, "unit": "µM"}, {"measurement": "IC50", "setting": "[1]; Homo sapiens, A549, A549, 2 000 b/j, single experiment (date), sheet Bp4eA", "result": 202, "unit": "µM"}, {"measurement": "viability at 72 h, 1 μM", "setting": "[2]; [4]", "result": 110, "unit": "%"}, {"measurement": "viability at 72 h, 1 μM", "setting": "[2]; [5]", "result": 100, "unit": "%"}, {"measurement": "viability at 72 h, 3 μM", "setting": "[2]; [4]", "result": 106, "unit": "%"}, {"measurement": "viability at 72 h, 3 μM", "setting": "[2]; [5]", "result": 98.2, "unit": "%"}, {"measurement": "viability at 72 h, 10 μM", "setting": "[2]; [4]", "result": 103, "unit": "%"}, {"measurement": "viability at 72 h, 10 μM", "setting": "[2]; [5]", "result": 94.7, "unit": "%"}, {"measurement": "viability at 72 h, 30 μM", "setting": "[2]; [4]", "result": 101, "unit": "%"}, {"measurement": "viability at 72 h, 30 μM", "setting": "[2]; [5]", "result": 92.8, "unit": "%"}, {"measurement": "viability at 72 h, 100 μM", "setting": "[2]; [4]", "result": 88.8, "unit": "%"}, {"measurement": "viability at 72 h, 100 μM", "setting": "[2]; [5]", "result": 87.3, "unit": "%"}, {"measurement": "viability at 72 h, 300 μM", "setting": "[2]; [4]", "result": 80.5, "unit": "%"}, {"measurement": "viability at 72 h, 300 μM", "setting": "[2]; [5]", "result": 78.1, "unit": "%"}, {"measurement": "viability at 72 h, 1000 μM", "setting": "[2]; [4]", "result": 37.5, "unit": "%"}, {"measurement": "viability at 72 h, 1000 μM", "setting": "[2]; [5]", "result": 47.2, "unit": "%"}, {"measurement": "IC50", "setting": "[3]; MTT, read-out: IC50", "result": "1.01 mM and 1.15 mM"}, {"measurement": "MTT viability (0 = 100)", "setting": "[3]; koncentrace 1 μM", "result": "95.1233 and 93.3461 and 101.857"}, {"measurement": "MTT viability (0 = 100)", "setting": "[3]; koncentrace 3 μM", "result": "92.5164 and 97.328 and 96.9903"}, {"measurement": "MTT viability (0 = 100)", "setting": "[3]; koncentrace 10 μM", "result": "86.2678 and 91.552 and 97.4344"}, {"measurement": "MTT viability (0 = 100)", "setting": "[3]; koncentrace 30 μM", "result": "90.9815 and 83.2122 and 96.551"}, {"measurement": "MTT viability (0 = 100)", "setting": "[3]; koncentrace 100 μM", "result": "87.8661 and 89.8957 and 82.8198"}]}
